System: HCV 1b genotype
Assay: HCV Replicon assay (HCV 1b genotype)
Assay type: cell-based, Hepatitis C virus
Settings: Hepatitis C virus; HCV 1b genotype replicon; class symbol; read-out: Range (EC50 values against HCV 1b)
Procedure: An HCV Replicon assay was utilized in the present disclosure, and was prepared, conducted and validated as described in commonly owned PCT/US2006/022197 and in O'Boyle et. al. Antimicrob Agents Chemother. 2005 April; 49(4):1346-53. Assay methods incorporating luciferase reporters have also been used as described (Apath.com).
HCV-neo replicon cells and replicon cells containing mutations in the NS5A region were used to test the currently described family of compounds. The compounds were determined to have more than 10-fold less inhibitory activity on cells containing mutations than wild-type cells. Thus, the compounds of the present disclosure can be effective in inhibiting the function of the HCV NS5A protein and are understood to be as effective in combinations as previously described in application PCT/US2006/022197 and commonly owned WO/04014852. Further, the compounds of the present disclosure can be effective against the HCV 1b genotype. It should also be understood that the compounds of the present disclosure can inhibit multiple genotypes of HCV. […] In one embodiment, compounds of the present disclosure are inhibitory versus 1a, 1b, 2a, 2b, 3a, 4a, and 5a genotypes.

SMILES | EC50
COC(=O)N[C@H](C(=O)N1[C@@H]2C[C@@H]2C[C@H]1c1nc(-c2ccc(C#Cc3ccc(-c4[nH]c([C@@H]5C[C@H]6C[C@H]6N5C(=O)[C@@H](NC(=O)OC)C5CCOCC5)nc4Cl)cc3)cc2)c[nH]1)C1CCOCC1 [Example M9.1, methyl ((1S)-2-((1R,3S,5R)-3-(4-(4-((4-(4-chloro-2-((1R,3S,5R)-2-((2S)-2-((methoxycarbonyl)amino)-2-(tetrahydro-2H-pyran-4-yl)acetyl)-2-azabicyclo[3.1.0]hex-3-yl)-1H-imidazol-5-yl)phenyl)ethynyl)phenyl)-1H-imidazol-2-yl)-2-azabicyclo[3.1.0]hex-2-yl)-2-oxo-1-(tetrahydro-2H-pyran-4-yl)ethyl)carbamate] | 2 to 99 pM
COC(=O)N[C@H](C(=O)N1[C@@H]2C[C@@H]2C[C@H]1c1nc(Cl)c(-c2ccc(C#Cc3ccc(-c4[nH]c([C@@H]5C[C@H]6C[C@H]6N5C(=O)[C@@H](NC(=O)OC)C5CCOCC5)nc4Cl)cc3)cc2)[nH]1)C1CCOCC1 [Example M9.2, dimethyl (1,2-ethynediylbis(4,1-phenylene(4-chloro-1H-imidazole-5,2-diyl)(1R,3S,5R)-2-azabicyclo[3.1.0]hexane-3,2-diyl((1S)-2-oxo-1-(tetrahydro-2H-pyran-4-yl)-2,1-ethanediyl)))biscarbamate] | 2 to 99 pM
COC(=O)N[C@H](C(=O)N1[C@@H]2C[C@@H]2C[C@H]1c1ncc(-c2ccc([C@H]3C[C@@H]3c3ccc(-c4cnc([C@@H]5C[C@H]6C[C@H]6N5C(=O)[C@@H](NC(=O)OC)C(C)C)[nH]4)cc3)cc2)[nH]1)C(C)C [Example M9.3] | 2 to 99 pM
COC(=O)N[C@H](C(=O)N1[C@@H]2C[C@@H]2C[C@H]1c1ncc(-c2ccc([C@H]3C[C@@H]3c3ccc(-c4cnc([C@@H]5C[C@H]6C[C@H]6N5C(=O)[C@@H](NC(=O)OC)C5CCOCC5)[nH]4)cc3)cc2)[nH]1)C1CCOCC1 [Example M9.4, dimethyl ((1S,2S)-1,2-cyclopropanediylbis(4,1-phenylene-1H-imidazole-4,2-diyl(1R,3S,5R)-2-azabicyclo[3.1.0]hexane-3,2-diyl((1S)-2-oxo-1-(tetrahydro-2H-pyran-4-yl)-2,1-ethanediyl)))biscarbamate] | 2 to 99 pM
COC(=O)N[C@H](C(=O)N1[C@@H]2C[C@@H]2C[C@H]1c1nc(-c2ccc([C@@H]3C[C@H]3c3ccc(-c4c[nH]c([C@@H]5C[C@H]6C[C@H]6N5C(=O)[C@@H](NC(=O)OC)C5CCOCC5)n4)cc3)cc2)c[nH]1)C1CCOCC1 [Example M9.6, dimethyl ((1R,2R)-1,2-cyclopropanediylbis(4,1-phenylene-1H-imidazole-4,2-diyl(1R,3S,5R)-2-azabicyclo[3.1.0]hexane-3,2-diyl((1S)-2-oxo-1-(tetrahydro-2H-pyran-4-yl)-2,1-ethanediyl)))biscarbamate] | 2 to 99 pM
COC(=O)N[C@H](C(=O)N1C[C@@H](C)C[C@H]1c1ncc(-c2ccc([C@H]3C[C@@H]3c3ccc(-c4cnc([C@@H]5C[C@H](C)CN5C(=O)[C@@H](NC(=O)OC)C(C)C)[nH]4)cc3)cc2)[nH]1)C(C)C [Example M9.7, methyl ((1S)-1-(((2S,4S)-2-(4-(4-((1S,2S)-2-(4-(2-((2S,4S)-1-((2S)-2-((methoxycarbonyl)amino)-3-methylbutanoyl)-4-methyl-2-pyrrolidinyl)-1H-imidazol-4-yl)phenyl)cyclopropyl)phenyl)-1H-imidazol-2-yl)-4-methyl-1-pyrrolidinyl)carbonyl)-2-methylpropyl)carbamate] | 2 to 99 pM
COC(=O)N[C@H](C(=O)N1C[C@@H](C)C[C@H]1c1ncc(-c2ccc([C@H]3C[C@@H]3c3ccc(-c4cnc([C@@H]5C[C@H](C)CN5C(=O)[C@@H](NC(=O)OC)C5CCOCC5)[nH]4)cc3)cc2)[nH]1)C1CCOCC1 [Example M9.8, dimethyl ((1S,2S)-1,2-cyclopropanediylbis(4,1-phenylene-1H-imidazole-4,2-diyl((2S,4S)-4-methyl-2,1-pyrrolidinediyl)((1S)-2-oxo-1-(tetrahydro-2H-pyran-4-yl)-2,1-ethanediyl)))biscarbamate] | 2 to 99 pM
COC(=O)N[C@H](C(=O)N1[C@@H](C)CC[C@H]1c1ncc(-c2ccc(C#Cc3ccc(-c4cnc([C@@H]5CC[C@H](C)N5C(=O)[C@@H](NC(=O)OC)C(C)C)[nH]4)cc3)cc2)[nH]1)C(C)C [Example M10, methyl ((1S)-1-(((2S,5S)-2-(4-(4-((4-(2-((2S,5S)-1-((2S)-2-((methoxycarbonyl)amino)-3-methylbutanoyl)-5-methyl-2-pyrrolidinyl)-1H-imidazol-4-yl)phenyl)ethynyl)phenyl)-1H-imidazol-2-yl)-5-methyl-1-pyrrolidinyl)carbonyl)-2-methylpropyl)carbamate] | 2 to 99 pM
CC[C@H](NC(=O)OC)C(=O)N1[C@@H](C)CC[C@H]1c1nc(-c2ccc(C#Cc3ccc(-c4c[nH]c([C@@H]5CC[C@H](C)N5C(=O)[C@H](CC)NC(=O)OC)n4)cc3)cc2)c[nH]1 [Example M11, dimethyl (1,2-ethynediylbis(4,1-phenylene-1H-imidazole-4,2-diyl((2S,5S)-5-methyl-2,1-pyrrolidinediyl)((2S)-1-oxo-1,2-butanediyl)))biscarbamate] | 2 to 99 pM
COC(=O)N[C@H](C(=O)N1[C@@H](C)CC[C@H]1c1nc(-c2ccc(C#Cc3ccc(-c4c[nH]c([C@@H]5CC[C@H](C)N5C(=O)[C@@H](NC(=O)OC)C5CCOCC5)n4)cc3)cc2)c[nH]1)C1CCOCC1 [Example M12, dimethyl (1,2-ethynediylbis(4,1-phenylene-1H-imidazole-4,2-diyl((2S,5S)-5-methyl-2,1-pyrrolidinediyl)((1S)-2-oxo-1-(tetrahydro-2H-pyran-4-yl)-2,1-ethanediyl)))biscarbamate] | 2 to 99 pM
COC(=O)N[C@H](C(=O)N1[C@@H](C)CC[C@H]1c1ncc(-c2ccc(C#Cc3ccc(-c4cnc([C@@H]5CC[C@H](C)N5C(=O)[C@@H](NC(=O)OC)C5CCOCC5)[nH]4)cc3)cc2)[nH]1)C(C)C [Example M12.1, methyl ((1S)-1-(((2S,5S)-2-(4-(4-((4-(2-((2S,5S)-1-((2S)-2-((methoxycarbonyl)amino)-2-(tetrahydro-2H-pyran-4-yl)acetyl)-5-methyl-2-pyrrolidinyl)-1H-imidazol-4-yl)phenyl)ethynyl)phenyl)-1H-imidazol-2-yl)-5-methyl-1-pyrrolidinyl)carbonyl)-2-methylpropyl)carbamate] | 2 to 99 pM
COC(=O)N[C@H](C(=O)N1C[C@@H](C)C[C@H]1c1ncc(-c2ccc(C#Cc3ccc(-c4cnc([C@@H]5C[C@H](C)CN5C(=O)[C@@H](NC(=O)OC)C(C)C)[nH]4)cc3)cc2)[nH]1)C(C)C [Example M12.2, methyl ((1S)-1-(((2S,4S)-2-(4-(4-((4-(2-((2S,4S)-1-((2S)-2-((methoxycarbonyl)amino)-3-methylbutanoyl)-4-methyl-2-pyrrolidinyl)-1H-imidazol-4-yl)phenyl)ethynyl)phenyl)-1H-imidazol-2-yl)-4-methyl-1-pyrrolidinyl)carbonyl)-2-methylpropyl)carbamate] | 2 to 99 pM

Source: patent US8796466B2, “Hepatitis C virus inhibitors” (Bristol-Myers Squibb Company, priority 2009, dated 2014)
